# Laboratory results taken from article PMC3862409 (International Journal for Parasitology, Drugs and Drug …, 2013).
# Numbering of substitutions follows the chain as printed. “Also recorded” adds a separate entry of the source.
# What was measured:
# TbHK1 [1] = molecular target: T1, TbHK1 (Trypanosoma brucei brucei, UniProt Q38C42); assay: Native gel analysis of TbHK1 oligomerization; conditions: data not shown
# T1 sequence (Q38C42 1-471): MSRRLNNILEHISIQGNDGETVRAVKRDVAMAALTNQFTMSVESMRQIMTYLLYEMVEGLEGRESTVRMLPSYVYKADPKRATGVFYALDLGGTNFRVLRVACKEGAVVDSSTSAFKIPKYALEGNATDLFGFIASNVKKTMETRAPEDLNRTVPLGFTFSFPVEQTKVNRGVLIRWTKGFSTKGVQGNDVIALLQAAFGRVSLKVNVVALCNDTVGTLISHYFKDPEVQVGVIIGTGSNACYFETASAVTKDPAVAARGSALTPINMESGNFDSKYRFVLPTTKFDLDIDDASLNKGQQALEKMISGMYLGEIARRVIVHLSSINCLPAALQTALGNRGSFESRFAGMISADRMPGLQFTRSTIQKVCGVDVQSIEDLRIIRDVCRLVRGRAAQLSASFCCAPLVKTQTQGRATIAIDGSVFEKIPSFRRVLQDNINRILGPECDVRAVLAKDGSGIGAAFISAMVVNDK
# [2] = molecular target: T2, T. brucei hexokinase 1 (TbHK1), WT (Trypanosoma brucei brucei, UniProt Q38C42); assay: Coupled hexokinase assay; format: biochemical
# T2 sequence (Q38C42 1-471): T1 sequence (Q38C42 1-471)
# [3] = system: HK from Plasmodium falciparum (PfHK); conditions: ref Harris et al., 2013, cited from earlier work
# TbHK1 C402A = molecular target: T3, TbHK1 C402A (Trypanosoma brucei brucei, UniProt Q38C42, C402A); assay: Coupled hexokinase assay, TbHK1 Cys variant C402A; format: biochemical
# T3 sequence (Q38C42 1-471 C402A): T1 sequence (Q38C42 1-471) with C402A
# [4] = cited from earlier work
# TbHK1 [5] = molecular target: T1, TbHK1; conditions: ref Sharlow et al., 2010b, cited from earlier work; for Inhibition of TbHK1: LOPAC screen, at 10 μM
# TbHK1 C445A = molecular target: T4, TbHK1 C445A (Trypanosoma brucei brucei, UniProt Q38C42, C445A); assay: Coupled hexokinase assay, TbHK1 Cys variant C445A; format: biochemical
# T4 sequence (Q38C42 1-471 C445A): T1 sequence (Q38C42 1-471) with C445A
# [6] = system: human indoleamine 2,3-dioxygenase (IDO); conditions: covalent modification of multiple Cys residues; ref Terentis et al., 2010; cited from earlier work
# TbHK1 C369A = molecular target: T5, TbHK1 C369A (Trypanosoma brucei brucei, UniProt Q38C42, C369A); assay: Coupled hexokinase assay, TbHK1 Cys variant C369A; format: biochemical
# T5 sequence (Q38C42 1-471 C369A): T1 sequence (Q38C42 1-471) with C369A
# [7] = system: glucose-6-phosphate dehydrogenase (G6PDH); assay: Counterscreen for inhibition of G6PDH; format: biochemical
# TbHK1 C212S = molecular target: T6, TbHK1 C212S (Trypanosoma brucei brucei, UniProt Q38C42, C212S); assay: Coupled hexokinase assay, TbHK1 Cys variant C212S; format: biochemical
# T6 sequence (Q38C42 1-471 C212S): T1 sequence (Q38C42 1-471) with C212S
# T. brucei parasites = conditions: ref Sharlow et al., cited from earlier work; for EC50: read-out: EC50 against parasites, unit inferred, 2010a,b; for Toxicity to parasites: 2010b
# TbHK1 C401A = molecular target: T7, TbHK1 C401A (Trypanosoma brucei brucei, UniProt Q38C42, C401A); assay: Coupled hexokinase assay, TbHK1 Cys variant C401A; format: biochemical
# T7 sequence (Q38C42 1-471 C401A): T1 sequence (Q38C42 1-471) with C401A
# parasite G6-P levels = conditions: after acute exposure; ref Sharlow et al., 2010a,b; cited from earlier work
# TbHK1 C242A = molecular target: T8, TbHK1 C242A (Trypanosoma brucei brucei, UniProt Q38C42, C242A); assay: Coupled hexokinase assay, TbHK1 Cys variant C242A; format: biochemical
# T8 sequence (Q38C42 1-471 C242A): T1 sequence (Q38C42 1-471) with C242A
structure (smiles),measurement,setting,value
"O=C(O)CCP(CCC(=O)O)CCC(=O)O [TCEP, tris (2-carboxyethyl)phosphine]",Impact on oligomerization of TbHK1,TbHK1 [1],neither EbSe nor TCEP impact oligomerization
"O=C(CCCCC1SCC2NC(=O)NC21)NCCCCC(NC(=O)CCN1C(=O)C=CC1=O)C(=O)O (stereo not drawn) [MPB, 3-(N-maleimidopropionyl)-biocytin]",Impact on enzyme activity,[2]; MPB at concentrations up to 50 μM,did not impact enzyme activity
"O[C@@H](CS)[C@@H](O)CS (racemic) [DTT, dithiothreitol]",Impact on enzyme activity,"[2]; DTT alone, 100 mM",little impact on enzyme activity
"O=c1c2ccccc2[se]n1-c1ccccc1 [EbSe, 2-phenyl-1,2-benzisoselenazol-3(2H)-one]",Potency against PfHK relative to TbHK1,[3]; more potent on PfHK,~10 fold
same,Reversibility of PfHK inhibition by dilution,[3],completely relieved by dilution
same,IC50,TbHK1 C402A,430 ± 110 nM
same,Toxicity to humans,"[4]; human, in vivo",non-toxic
same,Outcome of patients suffering stroke,"[4]; ref Yamaguchi et al., 1998",improve the outcome
same,Inhibition of TbHK1,TbHK1 [5],88.1 ± 0.6%
same,Mode of inhibition,TbHK1 [5]; with respect to ATP,mixed inhibitors
same,Impact on oligomerization of TbHK1,TbHK1 [1],neither EbSe nor TCEP impact oligomerization
same,IC50,TbHK1 C445A,520 ± 50 nM
same,Inhibition of human IDO,[6],inhibited
same,IC50,TbHK1 C369A,260 ± 20 nM
same,Inhibition of G6PDH in counterscreen,[7],ineffective
same,Sensitivity of variant to inhibition,TbHK1 C212S,remained sensitive
same,IC50,"TbHK1 C212S; read-out: EbSe IC50, relative to WT",< 350 nM
same,IC50,[2],350 ± 70 nM
same,Reversibility of inhibition by dilution,[2]; 200-fold dilution of enzyme and inhibitor after pre-incubation,not reversible; also recorded: irreversible
same,Rescue of enzyme activity by DTT added after inhibitor incubation,[2]; DTT 100 mM added after incubation with inhibitor,only modestly rescued enzyme activity
same,Relief of inhibition by excess Mg2+,"[2]; Mg2+ at ~15-fold higher concentrations than standard reaction, data not shown",did not relieve EbSe inhibition
same,Effect of pre-incubation of TbHK1 with DTT on inhibition,[2]; data not shown,prevented EbSe inhibition
same,Effect of pre-incubation with MPB on inhibition,[2]; enzyme pre-incubated with MPB,did not appreciably alter EbSe inhibition
same,EC50,T. brucei parasites,2900 ± 280 nM
same,Toxicity to parasites,T. brucei parasites,toxic to parasites
same,IC50,TbHK1 C401A,290 ± 40 nM
same,Effect on parasite G6-P levels,parasite G6-P levels,able to reduce parasite G6-P levels
same,IC50,TbHK1 C242A,550 ± 20 nM
"O=c1c2ccccc2sn1-c1ccccc1 [EbS, 2-phenyl-1,2-benzisothiazol-3(2H)-one]",Reversibility of PfHK inhibition by dilution,[3],completely relieved by dilution
same,EC50,T. brucei parasites,30 ± 67 nM
same,Toxicity to parasites,T. brucei parasites,toxic to parasites
same,Effect on parasite G6-P levels,parasite G6-P levels,able to reduce parasite G6-P levels
O=C(O)c1cc[c]([Hg][Cl])cc1 [4-chloromercuribenzoic acid],Inhibition of TbHK1,TbHK1 [5],84.7 ± 0.4%
